Our source for the inhibition and IC50 values is patent US20130203815A1, “CYTOKINE INHIBITORS” (PIRAMAL ENTERPRISES LIMITED, priority 2010, published 2013).

Assay type in all cases: cell-based
The test system of test [1] is TNF-α. Nature of the test: Whole blood cell culture assay, LPS-induced TNF-α release. Particulars: Homo sapiens, at a concentration of 10 μM, LPS 1 μg/ml, 4.5 hours. As for the experimental part:
TNF-α production by lipopolysaccharide (LPS) in whole blood was measured according to the method described in literature (J. Immunol. Methods, 1991, 139, 233-240).
Blood was collected from healthy donors into potassium EDTA vacutainer tubes (Becton Dickinson) and diluted with RPMI (Roswell Park Memorial Institute) 1640 culture medium (Gibco BRL, Pasley, UK) containing 100 U/ml penicillin and 100 μg/ml streptomycin, (100× solution, Sigma Chemical Co. St Louis, Mo.) with no added serum. The white blood cell count was adjusted to 1×10^6 cells/ml and 100 it/well of the diluted blood was transferred into 96-well culture plates. Following cell plating, 79 μl of culture medium and 1 μl of the test compounds (final concentration 1 μM and 10 μM) dissolved in DMSO was added to the cells. The final concentration of DMSO was adjusted to 0.5%. 1 μl of vehicle (0.5% DMSO) was used as control. Rolipram (300 μM) was used as a standard compound. The plates were incubated for 30 minutes at 37° C. in an atmosphere of 5% CO2. Finally, 20 μl (10 μg/ml) per well of LPS (Escherchia coli 0127:B8, Sigma Chemical Co. St. Louis, Mo.) was added, for a final concentration of 1 μg/ml. Plates were incubated at 37° C. for 4.5 hours in an atmosphere of 5% CO2. Supernatants were harvested and assayed for TNF-α by ELISA as described by the manufacturer (OptiEIA ELISA sets, BD Biosciences, Pharmingen). Percent inhibition of TNF-α release in comparison to the control was calculated.

For test [2], the system named is TNF-α. Nature of the test: hPBMCs assay, LPS-induced TNF-α. Particulars: Homo sapiens, LPS 1 μg/ml, 5 hours, ELISA. As for the experimental part:
(§1) TNF-α production by lipopolysaccharides (LPS) in hPBMCs was measured according to the method described in literature (Physiol. Res., 2003, 52, 593-598). Blood was collected from healthy donors into Potassium EDTA vacutainer tubes (BD vacutainer). The PBMCs were isolated using gradient centrifugation in Histopaque-1077 solution (Sigma). Isolated PBMC were suspended in RPMI 1640 culture medium (Sigma-Aldrich Fine Chemicals, USA), containing 10% fetal bovine serum (FBS) (JRH, USA), 100 U/ml penicillin (Sigma Chemical Co. St Louis, Mo.) and 100 μg/ml streptomycin (Sigma Chemical Co. St Louis, Mo.). The cell concentration was adjusted to 1×10^6 cells/ml. The viability as determined by trypan blue dye exclusion was uniformly ≧98%. The cell suspension (100 μl) was added to the wells of a 96-well culture plate. Following cell plating, 79 μl of the culture medium and 1 μl of eight different concentrations of the test compounds (final concentration 0.03, 0.1, 0.3, 1, 3, 10, 30, 100 μg/ml) dissolved in DMSO were added to the cells. The final concentration of DMSO was adjusted to 0.5%. The vehicle (0.5 DMSO) was used as control. Rolipram (300 μM) was used as a standard compound. The plates were incubated for 30 minutes at 37° C. in an atmosphere of 5% CO2. Finally, 20 μl (10 μg/ml) per well of LPS, (Escherchia coli 0127:B8, Sigma Chemical Co., St. Louis, Mo.) was added, for a final concentration of 1 µg/ml. The plates were incubated at 37° C. for 5 hours in an atmosphere of 5% CO2. To assess the cytotoxic effect of the test compounds, the cellular viability test was performed using MTS (3-(4,5-dimethylthiazol-2-yl)-5-(3-carboxymethoxyphenyl)-2-(4-sulfonyl)-2H-tetrazolium) reagent after 5 hours of incubation. Supernatants were harvested and assayed for TNF-α, interleukin-1β (IL-1β), interleukin-6 (IL-6) and interleukin-8 (IL-8) by ELISA as described by the manufacturer. (OptiEIA ELISA sets, BD Biosciences, Pharmingen). […]

The next test relates to IL-1β. Nature of the test: hPBMCs assay, LPS-induced IL-1β. The settings on record: Homo sapiens, LPS 1 μg/ml, 5 hours, ELISA. As for the experimental part:
as §1
A general note: ELISA stands for enzyme-linked immunosorbent assay.

The next test has as its system IL-6. Nature of the test: hPBMCs assay, LPS-induced IL-6. The settings on record: Homo sapiens, LPS 1 μg/ml, 5 hours, ELISA. As for the experimental part:
as §1

A further test deals with IL-8. Nature of the test: hPBMCs assay, LPS-induced IL-8. The settings on record: Homo sapiens, LPS 1 μg/ml, 5 hours, ELISA. As for the experimental part: as §1

Where a name gives a salt, the structure may show the parent alone.

On to `COc1cc(OC)c(C2CCN(C)C2CO)c(O)c1C(=O)C=Cc1ccccc1Cl` (racemic) [Example 20, (+/−)3-(2-Chlorophenyl)-1-(2-hydroxy-3-(2-(hydroxymethyl)-1-methylpyrrolidin-3-yl)-4,6-dimethoxy-phenyl)prop-2-en-1-one hydrochloride], for which the inhibition at 10 µM in the test with TNF-α [1] was found to be 66%. The IC50 in the test with TNF-α [2] was 0.9 µM; in the test on IL-1β, 0.8 µM; with IL-6 it was 4.9 µM; in the test with IL-8, 6.5 µM.

On to `COc1cc(OC)c(C2CCN(C)C2CO)c(O)c1C(=O)C=Cc1cccnc1` (racemic) [Example 48, (+/−)1-(2-Hydroxy-3-(2-(hydroxymethyl)-1-methylpyrrolidin-3-yl)-4,6-dimethoxy-phenyl)-3-(pyridin-3-yl)prop-2-en-1-one], for which the inhibition at 10 µM in the test on TNF-α [1] turned out to be 61%.

In the case of `COc1cc(OC)c(C2CCN(C)C2CO)c(O)c1C(=O)C=Cc1ccc(Cl)cc1` (racemic) [Example 28, (+/−)3-(4-Chlorophenyl)-1-(2-hydroxy-3-(2-(hydroxymethyl)-1-methylpyrrolidin-3-yl)-4,6-dimethoxy-phenyl)prop-2-en-1-one], in the test with TNF-α [1], the inhibition at 10 µM was 30%.

As for `COc1cc(OC)c(C2CCN(C)C2CO)c(O)c1C(=O)C=Cc1cccc(Br)c1` (racemic) [Example 21, (+/−)3-(3-Bromophenyl)-1-(2-hydroxy-3-(2-(hydroxymethyl)-1-methylpyrrolidin-3-yl)-4,6-dimethoxy-phenyl)prop-2-en-1-one], at 10 µM the inhibition in the test with TNF-α [1] was 61%. The IC50 in the test with TNF-α [2] came out at 0.8 µM; with IL-1β it was 0.2 µM; in the test on IL-6, 2.3 µM; with IL-8, 5.2 µM.

Compound `COc1cc(OC)c(C2CCN(C)C2CO)c(O)c1C(=O)C=Cc1cccc(C)c1` (racemic) [Example 23, (+/−)1-(2-Hydroxy-3-(2-(hydroxymethyl)-1-methylpyrrolidin-3-yl)-4,6-dimethoxy-phenyl)-3-m-tolylprop-2-en-1-one] had an inhibition at 10 µM in the test with TNF-α [1] of 32%.

On to `COc1cc(OC)c(C2CN(C)C(=O)C2CO)c(O)c1C(=O)C=Cc1ccccc1Cl` (racemic) [Example 39, (+/−)4-(3-(3-(2-Chlorophenyl)acryloyl)-2-hydroxy-4,6-dimethoxy-phenyl)-3-(hydroxymethyl)-1-methylpyrrolidin-2-one], for which the inhibition at 10 µM in the test on TNF-α [1] came out at 75%.

Take `COc1cc(OC)c(C2CCN(C)C2CO)c(O)c1C(=O)C=Cc1cccc([N+](=O)[O-])c1` (racemic) [Example 25, (+/−)1-(2-Hydroxy-3-(2-(hydroxymethyl)-1-methylpyrrolidin-3-yl)-4,6-dimethoxy-phenyl)-3-(3-nitrophenyl)prop-2-en-1-one]: in the test with TNF-α [1], the inhibition at 10 µM came out at 68%. Moreover, the IC50 with TNF-α [2] was 0.5 µM; in the test with IL-1β it was 0.1 µM; in the test on IL-6, 2.5 µM; in the test with IL-8, 5.4 µM.

The compound `COc1cc(OC)c(C2CCN(C)C2CO)c(O)c1C(=O)C=Cc1ccc(C)o1` (racemic) [Example 45, (+/−)1-(2-Hydroxy-3-(2-(hydroxymethyl)-1-methylpyrrolidin-3-yl)-4,6-dimethoxy-phenyl)-3-(5-methylfuran-2-yl)prop-2-en-1-one] showed an inhibition at 10 µM with TNF-α [1] of 54%.

For the compound `COc1cc(OC)c(C2CCN(C)C2CO)c(O)c1C(=O)C=Cc1ccc(F)cc1` (racemic) [Example 29, (+/−)3-(4-Fluorophenyl)-1-(2-hydroxy-3-(2-(hydroxymethyl)-1-methylpyrrolidin-3-yl)-4,6-dimethoxy-phenyl)prop-2-en-1-one], at 10 µM the inhibition in the test on TNF-α [1] was 31%.

The term inhibition denotes the percentage by which the read-out fell short of the control. A lower inhibition goes with little suppression. As a reminder, the IC50 is the concentration needed to halve the response being measured.
